Measurements reported in article PMC5485989, “Role of Free Radicals and Biotransformation in Trichloronitrobenzene-Induced Nephrotoxicity In Vitro” (International Journal of Molecular Sciences, 2017).

What was measured:
[1] = tested on: renal cortical slices; settings: 120 min incubations; cited from earlier work
[2] = tested on: isolated renal cortical cells (IRCC); assay: 4-HNE adduction in IRCC (Western blot); type: cell-based, male Fischer 344 rats; settings: 0.5 or 1.0 mM, 15 or 30 min
Method: (§1) To determine if oxidative stress plays a role in 3,4,5-TCNB nephrotoxicity, experiments were conducted to determine the temporal aspects of free radical damage as evidenced by protein carbonylation (OxyBlot) and 4-hydroxynonenal (4-HNE) adduction.
(§2) Protein carbonylation was detected using OxyBlot™ Protein Oxidation (Millipore S7150; Temecula, CA, USA). Samples were prepared according to the manufacturer’s protocol and an equal amount of protein (25 µg) and volume were loaded in each lane of a 12.5% polyacrylamide gel and transferred to a nitrocellulose membrane (Whatman; 10-439-196; Dassel, Germany). The transfer was confirmed using a Memcode reversible protein stain kit (Pierce Biotechnology, Fisher Scientific) and the protein was used to normalize each lane. Membranes were incubated overnight at 4 °C with primary antibody (1:150) for OxyBlot. Goat anti-rabbit horse radish peroxidase (HRP, 1:300) was the secondary antibody. Protein with 4-hydroxynonenal (4-HNE) reduced Micahel adducts were prepared as described previously with the exception that 45 µg of protein was used for the gel. The membranes were developed using Amersham^TM ECLTM Western Blotting Reagents (GE Healthcare; Buckinghamshire, UK) and the results were viewed and analyzed using a Bio-Rad Chemidoc system with BioRad Chemidoc densitometry software (version 4.0.1, Catalog No. 170-9690, BioRad, Hercules, CA, USA).

[3] = tested on: isolated renal cortical cells (IRCC); assay: Time and concentration cytotoxicity study, LDH release in IRCC; type: cell-based, male Fischer 344 rats
Method: To determine the comparative nephrotoxic potential of the four TCNBs in IRCC, a time and concentration response study was performed starting at 15 min and 0.5 or 1.0 mM and adjusting the times tested based on the results (Figure 2).

[4] = tested on: isolated renal cortical cells (IRCC); assay: Protein carbonylation in IRCC (OxyBlot); type: cell-based, male Fischer 344 rats
Method: as §1, §2

Question: For O=[N+]([O-])c1cc(Cl)c(Cl)c(Cl)c1 [3,4,5-TCNB], which “Lowest concentration inducing in vitro nephrotoxicity (increased LDH release and decreased pyruvate-stimulated gluconeogenesis)” value [1] is on record?
Answer: 0.5 mM

Question: What about the 4-HNE levels [2] of the same compound?
Answer: not increased

Question: What about the “Cytotoxicity (LDH release), time and concentration response” value ([3]; 0.5 or 1.0 mM, 15-120 min, significant difference from DMSO control, p < 0.05) of the same compound?
Answer: induced cytotoxicity at 30 and 60 min (0.5 and 1.0 mM) but not at 15 min

Question: What about the “Concentration at which cytotoxicity was evident” value ([3]; as early as 30 min) of the same compound?
Answer: 500 µM

Question: And the “Order of decreasing nephrotoxic potential” value ([3]; based on time of onset, lowest concentration required and magnitude of LDH release)?
Answer: most potent nephrotoxicant

Question: And the Protein carbonylation ([4]; 1.0 mM, 30 min, p = 0.017)?
Answer: slightly decreased

Question: What about the Protein carbonylation ([4]; 0.5 or 1.0 mM, 15 or 30 min) of the same compound?
Answer: not increased
